According to patent publication US20070071778A1 (ISP INVESTMENTS INC., priority 2005, published 2007):

Test system: mixed fungal inoculum (Aspergillus niger, Penicillium funiculosum and Stachybotrys chartarum)
Assay: Fungicidal efficacy on water saturated gypsum boards
Type: cell-based
Set-up: key: Presence (+); Absence (−) of Fungal Growth
Details: gypsum board, 1,000 ppm triclosan, 28° C., 80% RH, 30-45 days
Experimental: The compositions of Example 9 were diluted to 1,000 ppm of triclosan. Then both sides of a gypsum board (cream and grey) sample (2×2×½ in.) were brush coated with each formulation and allowed to dry for 24 hours. The Controls were gypsum boards treated with only water or with only 1,000 ppm of triclosan in dimethyl sulfamide. The treated gypsum boards were then placed on a Petri dish and water was added to saturate the board. The water saturated gypsum boards were then inoculated with a mixed fungal inoculum (Aspergillus niger, Penicillium funiculosum and Stachybotrys chartarum) containing ca. 10^5 spores/ml. The samples were incubated at 28° C., 80% RH for 30-45 days and rated for the presence or absence of fungal growth thereon. Samples showing no growth were re-inoculated and incubated for another 30-45 days.

Oc1cc(Cl)ccc1Oc1ccc(Cl)cc1Cl [Triclosan, triclosan]
Presence (+)/Absence (−) of Fungal Growth, Cream Side: +
Presence (+)/Absence (−) of Fungal Growth, Grey Side: +
